# Reference: patent US20260062449A1, “PEPTIDE COMPOSITIONS AND METHODS OF USE” (ONL Therapeutics, Inc., priority 2022, published 2026)
# No end group written: not given here.
# System: Jurkat cells
# Assay: Cell viability preservation in vitro: cell confluence of Jurkat cells after 24-hour incubation with FasL
# Format: cell-based
# Details: recombinant His-tagged FasL along with anti-His antibody
# Description: Compounds (oligopeptides) of the present disclosure were assayed for their ability to effect cell confluence following a 24-hour incubation. Jurkat cells were incubated for 24 hours with varying concentrations of compound (i.e., 200, 66.7, 22.2, 7.4, 2.5, 0.8, 0.3, and 0.1) and with or without recombinant His-tagged FasL along with an anti-His antibody. After the 24-hour incubation, cell confluence was quantified using an S3 Incucyte Imaging System (Sartorius) and a Vi-CELL XR Cell Viability Analyzer (Beckman Coulter) and compared to controls (cells incubated in the absence of compound and cells incubated with a known Fas inhibitor).
row,Substance,Activity: lowest concentration that prevented loss of cell confluency
1,NH2-KKIYLGAVNYIY-C(O)NH2 (H-KKIYLGAVNYIY-NH2) [Compound 9],B (cell protection at 1.0 < x < 10.0 μM)
2,NH2-HHIAAGAVNYIY-C(O)NH2 (H-HHIAAGAVNYIY-NH2) [Compound 6],B (cell protection at 1.0 < x < 10.0 μM)
3,NH2-HKIYLGAVNYIY-C(O)NH2 (H-HKIYLGAVNYIY-NH2) [Compound 11],B (cell protection at 1.0 < x < 10.0 μM)
4,"HHIYLGAVNYIY-NH2 [Compound A, reference compound]",A (cell protection at x < 1.0 μM)
5,NH2-HHIYLGSSSSNYIY-C(O)NH2 (H-HHIYLGSSSSNYIY-NH2) [Compound 8],B (cell protection at 1.0 < x < 10.0 μM)
6,NH2-KHIYLGAVNYIY-C(O)NH2 (H-KHIYLGAVNYIY-NH2) [Compound 10],A (cell protection at x < 1.0 μM)
7,NH2-HHIYLGGGGGNYIY-C(O)NH2 (H-HHIYLGGGGGNYIY-NH2) [Compound 7],B (cell protection at 1.0 < x < 10.0 μM)

# System: not listed separately
# Assay: Aqueous solubility / solution behaviour of Met-12
# Format: physicochemical
# Details: not given
# From the text: Experiments have clearly shown that Met-12 has to be dosed as a solution, both in vitro and in vivo, to show optimal activity, and producing such solutions in a largely aqueous medium has proven to be very difficult, especially under conditions which are acceptable for intravitreal injection. Dosing of suspensions or gels of Met-12 leads to major losses of potency. […] Despite extensive development work, the only solution formulations of Met-12 which have been found involve some very low pH solution injections (≤pH 2.8) or neat DMSO injections, all of which are suboptimal for intravitreal injections.
row,Substance,aqueous solubility
1,"HHIYLGAVNYIY [Met-12, H^60HIYLGAVNYIY^71]",extremely poor aqueous solubility

# Same assay, conditions: apparently clear 10 rang/mL solution in 20 mM citrate buffer pH 2.8
row,Substance,loss of material upon filtration
1,"HHIYLGAVNYIY [Met-12, H^60HIYLGAVNYIY^71]",considerable loss of material upon filtration
